Experimental data reported in patent US5304474A, “Hydrophobic peptide esters and amides” (Board of Regents, The University of Texas System, priority 1991, dated 1994).

What was measured:
[1] = system: splenic NK function (YAC-1 tumor targets); test: Spleen cell NK function against YAC-1 after tail-vein injection; format: in vivo, C3H/HeJ mice
Method: Leu-Leu-OMe or Leu-Phe-OMe were suspended in PBS, pH 7.4. Then individual C3H/HeJ mice (25 gram size) were administered by tail-vein injection either 2.5×10^-5 moles (6.5 mg) of Leu-Leu-OMe, 2.5×10^-5 moles (7.1 mg) Leu-Phe-OMe, or an equal volume of the PBS diluent, this dose being about 1×10^-3 moles per kg. […] Subsequent to this quiescent period no difference in activity or appearance in the mice was noted. Two hours post-injection, the mice were sacrificed and their spleen cells were assayed for NK function in a standard 4 hour assay against YAC-1 tumor targets. In all mice, total cell recovery ranged […] spleen cells per animal. […] Thus, Leu-Leu-OMe or Leu-Phe-OMe caused a greater than 75% decrease in splenic lytic activity against YAC-1 tumor targets.

[2] = system: MP-enriched adherent cells (AC); test: 51Cr release toxicity assay; format: cell-based, human
Method: (§1) In some experiments, toxicity of Leu-Leu-OMe for a variety of cell populations was assessed by ^51 Cr release In assays where cells obtained from suspension culture were to be used, cells were labeled with Na2^51 CrO4 (ICN, Plainview, N.Y.) for 60-90 minutes at 37° C. and then washed three times. Cells were then suspended in PBS (2.5×10^6 /ml) and incubated in microtiter plates, 50 microL/well with indicated concentrations of Leu-Leu-OMe for 15 minutes at room temperature. […] Following ^51 Cr labeling, wells were thoroughly washed and varying concentrations of Leu-Leu-OMe added in 50 microL PBS and the plates incubated for 15 minutes at room temperature.
(§2) Following such initial serum-free incubations, 200 microL/well of medium RPMI containing 10% FBS were added and the plates incubated for another 4 hours prior to removal of 100 microliters of supernatant. Radioactivity in the supernatant was measured in an auto-gamma scintillation spectrometer (Packard Instrument Co., Downers Grove, Ill.). The percent specific release was calculated from the formula: [formula] in which maximal release refers to cpm obtained in wells containing 50% lysing agent (American Scientific Products, McGraw Park, Ill.) and spontaneous release refers to cpm released by cells incubated in control medium in the absence of Leu-Leu-OMe or the lysing agent.
(§3) In developing the data expressed in FIG. 7, cells (2.5×10^6 /ml) were exposed to the indicated concentrations of Leu-Leu-OMe for 15 minutes at room temperature, then specific ^51 Cr release during the next four hours was assessed.

[3] = system: T4 enriched T cells; test: 51Cr release toxicity assay; format: cell-based, human
Method: as §1, §2, §3

[4] = system: T8-enriched population; test: 51Cr release toxicity assay; format: cell-based, human
Method: as §1, §2, §3

[5] = system: B Cells; test: Leu-Leu-OMe sensitivity of cell type; format: cell-based, human
[6] = system: CD16(+), CD4(+), CD8(+) lymphocytes; test: Lymphocyte subsets of PBL stained with alpha-CD16, alpha-CD4, alpha-CD8; format: cell-based, human
Text: Thus, as previously reported (see prior Examples and J. Immunol. 1986; 136:1038-1048), exposure of human PBL to 250 micro-M Leu-Leu-OMe results in loss of all CD16(+) NK cells, and the majority of CD8(+) T cells and thereby results in reciprocal enrichment of the CD4(+) T cell subset which is largely Leu-Leu-OMe resistant (see Table 13).

[7] = system: spleen cells; test: Donor cell viability and subsets after treatment; format: cell-based, mice
Text: Female, 8-16-wk-old, C57BL/6J (B6) and (C57BL/6J x DBA/2J)F1 mice (B6D2F1) were used as donors and recipients, respectively. For some experiments B6 donors were […] 70×10^6 cells/ml either in phosphate-buffered saline (PBS) or in Leu-Leu-OMe dissolved in PBS. Leu-Leu-OMe was synthesized from leucyl-leucine as previously described (10). […]
Immediately after treatment with Leu-Leu-OMe, there was less than a 5% loss of viable donor cells.

[8] = system: spleen cells; test: Spleen cell H-2 phenotype of transplanted mice (chimerism); format: in vivo, B6→B6D2F1 mice; conditions: recipients of treated cells, up to 275 d after transplantation
Method: Spleen cells from control mice (normal B6 or B6D2F1) and long-term BMTx survivors (B6→B6D2F1) were depleted of B cells by panning on goat anti-mouse immunoglobulin-coated petri dishes (15). Aliquots of B cell-depleted spleen cells were incubated either with antibody 30-5-7.S (anti-L^d), antibody 28-18-3.S (anti-k^b), or with a relevant isotype control antibody for 30 min at 4° C. Cells were then washed and incubated with a fluorescein isothiocyanate-labeled goat anti-mouse immunoglobulin (GAMIG-FITC, Cappell Laboratories, Cochranville, Pa.) and analyzed on a flow cytometer (Ortho system 50 HH, Ortho Diagnostics, Raritan, N.J.).
To see whether the donor hemopoietic system remained dominant over that of the irradiated recipient, we characterized the H-2 phenotype of spleen cells from the mice used in the survival experiments at various times after transplantation. Spleen cells from normal B6 (donor, H-2^b) and B6D2F1 (recipient, H-2^b /H-2^d) mice served as controls.

[9] = system: human dermal fibroblasts; test: 51Cr release toxicity assay
[10] = following 3-h incubation at 37° C.

COC(=O)[C@H](CC(C)C)NC(=O)[C@@H](N)CC(C)C [Leu-Leu-OMe, L-leucyl-L-leucine methyl ester]
Percent lysis of target cells ([1]; E:T 25:1, 2.5×10^-5 moles per mouse tail-vein, 2 hours post-injection, Control 8.29): 2.37% | Percent lysis of target cells ([1]; E:T 50:1, same dosing, Control 12.88): 4.58% | Percent lysis of target cells ([1]; E:T 100:1, same dosing, Control 20.60): 7.12% | Percent lysis of target cells ([1]; E:T 200:1, same dosing, Control 29.29): 12.77% | decrease in splenic lytic activity against YAC-1 tumor targets ([1]; about 1×10^-3 moles per kg tail-vein): greater than 75% | 51Cr release ([2]; 25-50 micromolar): minimal ^51 Cr release | Leu--Leu--OMe Sensitivity (LD50) ([2]; M--phi): 75 micro-M | 51Cr release ([3]; 1000 micromolar): caused minimal ^51 Cr release | Leu--Leu--OMe Sensitivity (LD50) ([3]; T4 Cells): > 500 micro-M | 51Cr release ([4]; N-SRBC positive cells depleted of OKT4 positive cells): produced high levels of ^51 Cr release | Leu--Leu--OMe Sensitivity (LD50) ([4]; T-8 Cells): 250 micro-M | Leu--Leu--OMe Sensitivity (LD50) [5]: > 500 micro-M | Cells stained with alpha-CD16 ([6]; single agent (Leu-Leu-OMe 250 micro-M or Gly-Phe-CHN2 10^-6 M), Nil 8.1): < 0.1 | Cells stained with alpha-CD8 ([6]; single agent, Nil 18.8): 7.0 | Cells stained with alpha-CD4 ([6]; single agent, Nil 60.3): 87.2 | decrease in number of Lyt-2^+ spleen cells [7, 10]: more than 65% | number of L3T4^+ cells [7, 10]: no alteration in the number of L3T4^+ cells | loss of viable donor cells ([7]; immediately after treatment): < 5% | reactivity of spleen cells with anti-H-2^b [8]: > 95% | reactivity of spleen cells with anti-H-2^d [8]: < 1% | 51Cr release [9]: no significant Leu-Leu-OMe induced ^51 Cr release | subsequent proliferative capacity ([9]; 500 micromolar): had no discernible effect on subsequent proliferative capacity
